Experimental data from patent US8426447B2, “Spiro-tricyclic ring compounds as beta-secretase modulators and methods of use” (Amgen Inc., priority 2008, dated 2013).

What was measured:
BACE1 [1] = biological target: T1, BACE1 (Homo sapiens, UniProt P56817); experiment: In Vitro BACE Cell-based Assay (HEK cell assay): Aβ40 in conditioned medium of cells stably expressing Amyloid Precursor Protein, sandwich ELISA
Procedure, shortened: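 Conditioned medium Aβ40 by ELISA: pAb40 capture 3 h 4° C., biotin-6E10 detection 2 h 4° C., Streptavidin-Europium TRF. IC50 fitted from % control.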

[2] = tested on: amyloid beta peptide (A-beta) in cerebrospinal fluid and brain; experiment: In Vivo Inhibition of Beta-Secretase: reduction of A-beta levels in CSF and brain; details: after 4 hrs, mouse or rat
Excerpt: Several animal models, including mouse, rat, dog, and monkey, may be used to screen for inhibition of beta-secretase activity in vivo following administration of a test compound sample. Animals used in this invention can be wild type, transgenic, or gene knockout animals. […] A separate group of animals receive 2% hydroxypropyl methylcellulose, 1% Tween80 alone, containing no test compound, and serve as a vehicle-control group. At the end of the test period, animals are sacrificed and brain tissues, plasma or cerebrospinal fluid are collected. […] Homogenates are centrifuged at 355,000 g, 4° C. for 30 minutes. CSF or brain supernatants are then analyzed for the presence of A-beta peptide by specific sandwich ELISA assays based on ECL (Electrochemiluminescence) technology. For example, rat Abeta40 is measured using biotinylated-4G8 (Signet) as a capture antibody and Fab40 (an in-house antibody specific to the C-terminal of Abeta40) as a detection antibody.

BACE1 [3] = biological target: T1, BACE1; experiment: In Vitro Enzymatic BACE FRET (Fluorescence Resonance Energy Transfer) Assay; type: biochemical
Procedure, shortened: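 Acetate buffer at pH 4.2 with 10% DMSO and 100 uM genapol hosts the enzymatic reaction, initiated by 50 nM FRET substrate and allowed to proceed one hour. Tris quench to neutral pH precedes the fluorescence measurement.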

[4] = Table II, Aβ40, 24 h incubation, read-out: HEK cell assay
[5] = Table II, read-out: BACE1 FRET assay
[6] = HEK cells, read-out: HEK cell assay
[7] = Table IV, class symbols, read-out: HEK cell assay
[8] = Table IV, class symbols, read-out: BACE1 FRET assay

T1 sequence (P56817 46-501, species assumed): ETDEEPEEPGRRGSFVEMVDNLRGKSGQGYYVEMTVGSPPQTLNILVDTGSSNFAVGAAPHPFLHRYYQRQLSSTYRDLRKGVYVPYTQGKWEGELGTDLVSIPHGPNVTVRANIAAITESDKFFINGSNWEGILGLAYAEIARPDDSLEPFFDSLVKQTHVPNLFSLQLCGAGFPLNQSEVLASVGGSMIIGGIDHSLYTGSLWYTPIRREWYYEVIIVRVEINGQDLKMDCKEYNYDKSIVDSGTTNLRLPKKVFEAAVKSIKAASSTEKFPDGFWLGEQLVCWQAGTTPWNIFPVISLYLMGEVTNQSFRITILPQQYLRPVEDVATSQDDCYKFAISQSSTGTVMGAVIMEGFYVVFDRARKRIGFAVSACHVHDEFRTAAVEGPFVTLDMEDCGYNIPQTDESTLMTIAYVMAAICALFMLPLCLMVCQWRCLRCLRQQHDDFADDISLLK

SMILES | IC50 (BACE1 [3]; read-out: BACE1 FRET assay) | IC50 (BACE1 [1]; [7]) | IC50 (BACE1 [3]; [8]) | percent reduction in CSF A-beta levels ([2]; 10 mpk) | percent reduction in brain A-beta levels ([2]; 10 mpk) | percent reduction in CSF A-beta levels ([2]; 30 mpk) | percent reduction in brain A-beta levels ([2]; 30 mpk) | further results
NC1=N[C@@]2(CO1)c1cc(-c3cccnc3F)ccc1Oc1cnc(-c3cccnc3)cc12 [Example 517, (5S)-7-(2-fluoro-3-pyridinyl)-3-(3-pyridinyl)spiro[chromeno[2,3-c]pyridine-5,4′-[1,3]oxazol]-2′-amine] |  |  |  | 56% | 36% |  |  | IC50 (BACE1 [1]; HEK cell assay (uM), HEK cells): < 0.1 µM; IC50 (BACE1 [3]; BACE1 FRET assay (uM)): < 0.1 µM
NC1=N[C@]2(CO1)c1cc(OCC(F)(F)F)ccc1Oc1ccc(-c3cncnc3)cc12 [Example 58, (4S)-2′-(5-pyrimidinyl)-7′-(2,2,2-trifluoroethoxy)spiro[1,3-oxazole-4,9′-xanthen]-2-amine] |  |  |  | 45% | 29% |  |  | IC50 (BACE1 [1]; [4]): 0.1 to 1 µM; IC50 (BACE1 [3]; [5]): < 0.1 µM
CC(C)(C#N)COc1cc(F)c2c(c1)[C@]1(COC(N)=N1)c1cc(-c3cccnc3F)ccc1O2 [Example 287, (S)-3-(2-amino-5′-fluoro-2′-(2-fluoropyridin-3-yl)-5H-spiro[oxazole-4,9′-xanthene]-7′-yloxy)-2,2-dimethylpropanenitrile] | < 0.1 µM |  |  | 48% | 32% |  |  | IC50 (BACE1 [1]; [6]): < 0.1 µM
NC1=N[C@@]2(CO1)c1cc(-c3cccnc3F)ccc1Oc1ccc(N3CCOCC3)cc12 [Example 289, (S)-2′-(2-fluoropyridin-3-yl)-7′-morpholino-5H-spiro[oxazole-4,9′-xanthen]-2-amine 2,2,2-trifluoroacetate] |  | < 0.1 µM | < 0.1 µM | 49% | 23% | 69% | 52% | 
CC(C)(C)C#Cc1cnc2c(c1)[C@]1(COC(N)=N1)c1cc(-c3cncnc3)ccc1O2 [Example 299, (S)-3-(3,3-dimethylbut-1-ynyl)-7-(pyrimidin-5-yl)-5′H-spiro[chromeno[2,3-b]pyridine-5,4′-oxazol]-2′-amine] | < 0.1 µM |  |  |  |  | 84% | 81% | IC50 (BACE1 [1]; read-out: HEK cell assay): < 0.1 µM
Cn1cc(-c2cc3c(cc2F)Oc2ccc(-c4cccnc4)cc2[C@@]32COC(N)=N2)cn1 [Example 531, (4S)-3′-fluoro-2′-(1-methyl-1H-pyrazol-4-yl)-7′-(3-pyridinyl)spiro[1,3-oxazole-4,9′-xanthen]-2-amine] | < 0.1 µM |  |  | 45% | 25% |  |  | IC50 (BACE1 [1]; [6]): < 0.1 µM
CC(C)(C)/C=C/c1cc2c(cn1)Oc1ccc(-c3cncnc3)cc1[C@@]21COC(N)=N1 [Example 291, (S,E)-3-(3,3-dimethylbut-1-enyl)-7-(pyrimidin-5-yl)-5′H-spiro[chromeno[2,3-c]pyridine-5,4′-oxazol]-2′-amine] | < 0.1 µM |  |  | 62% | 32% |  |  | IC50 (BACE1 [1]; [6]): < 0.1 µM
NC1=NC2(CO1)c1cc(-c3cccnc3)ccc1Oc1c(F)cc(C3=CCOCC3)cc12 (stereo in doubt) [Example 297, (R)-2′-(3,6-dihydro-2H-pyran-4-yl)-4′-fluoro-7′-(pyridin-3-yl)-5H-spiro[oxazole-4,9′-xanthen]-2-amine] |  | < 0.1 µM | < 0.1 µM |  |  | 69% | 54% | 
CC1(C)CN(c2cc3c(cn2)Oc2ccc(-c4cccnc4)cc2[C@@]32COC(N)=N2)CCO1 [Example 490, (5S)-3-(2,2-dimethyl-4-morpholinyl)-7-(3-pyridinyl)spiro[chromeno[2,3-c]pyridine-5,4′-[1,3]oxazol]-2′-amine] | < 0.1 µM |  |  | 28% | 9% |  |  | IC50 (BACE1 [1]; [6]): < 0.1 µM
NC1=N[C@@]2(CO1)c1cc(-c3cccnc3)ccc1Oc1ccc(N3CC(F)(F)C3)cc12 [Example 540, (4S)-2′-(3,3-difluoro-1-azetidinyl)-7′-(3-pyridinyl)spiro[1,3-oxazole-4,9′-xanthen]-2-amine] |  | < 0.1 µM | < 0.1 µM | 40% | 7% |  |  | 
CC(C)(F)COc1cc(F)c2c(c1)[C@]1(COC(N)=N1)c1cc(-c3cncnc3)ccc1O2 [Example 293, (S)-4′-fluoro-2′-(2-fluoro-2-methylpropoxy)-7′-(pyrimidin-5-yl)-5H-spiro[oxazole-4,9′-xanthen]-2-amine] | < 0.1 µM |  |  | 73% | 63% |  |  | IC50 (BACE1 [1]; [6]): < 0.1 µM
NC1=NC2(CO1)c1cc(-c3cncnc3)ccc1Oc1c(F)cc(C3=CCOCC3)cc12 (stereo in doubt) [Example 295, (R)-2′-(3,6-dihydro-2H-pyran-4-yl)-4′-fluoro-7′-(pyrimidin-5-yl)-5H-spiro[oxazole-4,9′-xanthen]-2-amine] |  | < 0.1 µM | < 0.1 µM |  |  | 78% | 66% | 
NC1=N[C@]2(CO1)c1cc(OCC3CC3)ccc1Oc1ccc(-c3cncnc3)cc12 [Example 61, (4S)-2′-(cyclopropylmethoxy)-7′-(5-pyrimidinyl)spiro[1,3-oxazole-4,9′-xanthen]-2-amine] |  |  |  | 50% | 18% |  |  | IC50 (BACE1 [1]; [4]): < 0.1 µM; IC50 (BACE1 [3]; [5]): < 0.1 µM
CC(C)(C)C#Cc1cnc2c(c1)[C@]1(COC(N)=N1)c1cc(-c3cccnc3)ccc1O2 [Example 185b, (5S)-3-(3,3-dimethyl-1-butyn-1-yl)-7-(3-pyridinyl)spiro[chromeno[2,3-b]pyridine-5,4′-[1,3]oxazol]-2′-amine] |  |  |  |  |  | 72% | 58% | IC50 (BACE1 [1]; Table III, IC50's in uM ranges, read-out: HEK cell assay): < 0.1 µM; IC50 (BACE1 [3]; Table III, IC50's in uM ranges, read-out: BACE1 FRET assay): < 0.1 µM

The next lines start with results.

IC50 (BACE1 [3]; read-out: BACE1 FRET assay) | IC50 (BACE1 [1]; [7]) | IC50 (BACE1 [3]; [8]) | SMILES | percent reduction in CSF A-beta levels ([2]; 10 mpk) | percent reduction in brain A-beta levels ([2]; 10 mpk) | percent reduction in CSF A-beta levels ([2]; 30 mpk) | percent reduction in brain A-beta levels ([2]; 30 mpk) | further results
 | < 0.1 µM | < 0.1 µM | CC1(C)CN(c2ccc3c(c2)[C@]2(COC(N)=N2)c2cc(-c4cccnc4)ccc2O3)CCO1 [Example 663, (4S)-2′-(2,2-dimethyl-4-morpholinyl)-7′-(3-pyridinyl)spiro[1,3-oxazole-4,9′-xanthen]-2-amine] |  |  | 57% | 44% | 
 | < 0.1 µM | < 0.1 µM | Cc1cc(-c2ccc3c(c2)[C@]2(COC(N)=N2)c2cc(-c4cccnc4F)ccc2O3)on1 [Example 563, (4S)-2′-(2-fluoro-3-pyridinyl)-7′-(3-methyl-5-isoxazolyl)spiro[1,3-oxazole-4,9′-xanthen]-2-amine] | 54% | 41% |  |  | 
 | < 0.1 µM | < 0.1 µM | C[C@@H]1CN(c2ccc3c(c2)[C@]2(COC(N)=N2)c2cc(-c4cccnc4)ccc2O3)C[C@H](C)O1 [Example 662, (4S)-2′-((2R,6S)-2,6-dimethyl-4-morpholinyl)-7′-(3-pyridinyl)spiro[1,3-oxazole-4,9′-xanthen]-2-amine] |  |  | 53% | 34% | 
< 0.1 µM |  |  | CC1(C)C=C(c2ccc3c(c2)[C@]2(COC(N)=N2)c2cc(-c4cncnc4)ccc2O3)CCO1 [Example 689, (4R)-2′-(6,6-dimethyl-3,6-dihydro-2H-pyran-4-yl)-7′-(5-pyrimidinyl)spiro[1,3-oxazole-4,9′-xanthen]-2-amine] |  |  | 69% | 41% | IC50 (BACE1 [1]; read-out: HEK cell assay): < 0.1 µM
 | < 0.1 µM | < 0.1 µM | CC(C)(C#N)COc1ccc2c(c1)[C@@]1(COC(N)=N1)c1cc(-c3ccccc3)cnc1O2 [Example 817, 3-(((5S)-2′-amino-3-phenylspiro[chromeno[2,3-b]pyridine-5,4′-[1,3]oxazol]-7-yl)oxy)-2,2-dimethylpropanenitrile] |  |  | 44% | 25% | 
 | < 0.1 µM | < 0.1 µM | COC(C)(C)C#Cc1cnc2c(c1)[C@]1(COC(N)=N1)c1cc(-c3cnccn3)ccc1O2 [Example 586, (5S)-3-(3-methoxy-3-methyl-1-butyn-1-yl)-7-(2-pyrazinyl)spiro[chromeno[2,3-b]pyridine-5,4′-[1,3]oxazol]-2′-amine] | 32% | 11% |  |  | 
 | < 0.1 µM | < 0.1 µM | CC(C)(C)COc1ccc2c(c1)[C@@]1(COC(N)=N1)c1cc(-c3ccncc3)cnc1O2 [Example 808, (5S)-7-(2,2-dimethylpropoxy)-3-(4-pyridinyl)spiro[chromeno[2,3-b]pyridine-5,4′-[1,3]oxazol]-2′-amine] |  |  | 55% | 43% | 
 | < 0.1 µM | < 0.1 µM | NC1=N[C@@]2(CO1)c1cc(-c3ccccc3)ccc1Oc1cnc(C3=CCOCC3)cc12 [Example 545, (5S)-3-(3,6-dihydro-2H-pyran-4-yl)-7-phenylspiro[chromeno[2,3-c]pyridine-5,4′-[1,3]oxazol]-2′-amine] |  |  | 73% | 58% | 
